The target in series [1] is steroid site on the GABAA receptor-chloride channel complex. Nature of the series: [35S]TBPS binding assay. The conditions noted are these: inhibition of [35S]TBPS (2 nM) binding, rat cerebral cortex P2 membranes, 5 µM GABA, 90 minute incubation at 22°C. Also noted: species or system Male Sprague-Dawley rats.
The next series concerns rats. As to the kind of experiment: Rat sleep-wake bioassay (EEG, EMG, locomotor activity, body temperature). It is filed as in vivo, Wistar rats. The conditions noted are these: for reduction in locomotor activity (LMA) over time: compared to Triazolam and Zolpidem. On the procedure: Rat preparation, monitoring, and analysis of the data was conducted as described below. […] Body temperature and locomotor activity were monitored via a miniature transmitter (Minimitter) surgically placed in the abdomen. The cranial implant consisted of stainless steel screws (2 frontal [+3.9 AP form bregma, ±2.0 ML] and two occipital [-6.4 AP, ±5.5 ML]) for EEG recording. Two Teflon-coated steel wires were positioned under the nuchal trapezoid muscles for EMG recording. All leads were soldered to a miniature connector prior to surgery, and chemically sterilized in Glutarex (3M Co.). The implant assembly was affixed to the skull with dental acrylic. A minimum of three weeks was allowed for recovery.
Each rat was permanently housed in its own individual recording cage located within separate, ventilated compartments of custom-designed stainless steel cabinets. Each Nalgene microisolator cage, which is an individual recording cage, was enhanced with a filter-top riser and swivel-commutator. Food and water were available ad libitum. […] Animals were undisturbed for three days both before and after treatments. In practice, animals were undisturbed during the weekend. Treatments were administered on Monday evening or Tuesday morning, and the animals were again left undisturbed until Friday, when cages were cleaned and the data copied off the computers.
The computers monitored the EEG, EMG, body temperature and non-specific locomotor activity (LMA) via telemetry, and drinking activity from 48 rats simultaneously. The computer classified the arousal state every 10 seconds using pattern-matching algorithms which included behavior-dependent contextual rules. Drinking and LMA were recorded every 10 seconds, while body temperature was recorded every minute.
Therefore, time of treatment is important. By administering the drug at CT-18, which is the peak of the rat's activity dominated period, the natural tendency for the rats to sleep at lights on ([…] clock time or Circadian Time, CT-0) cannot mask the hypnotic activity of the drug. By administering the drug at CT-5 when the propensity for REM sleep is greatest, the drug's effect on REM sleep can be measured more accurately. The activity dominated period begins when the lights are turned off at CT-12 or 15:00 clock time on the Figures.
The drugs and controls were injected intraperitoneally or administered orally in a volume of 1 ml/kg or […], respectively, under dim red illumination for the CT-18 studies or under regular light for the CT-5 studies.
A matched control group, N=20, was selected from a pool of 60 available control candidates. These matched control groups were constructed as follows.

A further series is described as follows: Solubility in water. The settings on record: read-out: soluble in water. The format is physicochemical.

Here are results for three compounds from patent EP0701444B1, “METHODS AND COMPOSITIONS FOR INDUCING SLEEP” (Purdue Pharma Ltd., priority 1993, dated 1994).

What is called IC50 is the midpoint of a concentration-inhibition curve. Read a high IC50 as weaker potency.

Entries after “also recorded” stand apart in the source; their conditions may differ. Like-named read-outs stand apart in the source and are kept apart here.

The compound `CC(=O)[C@H]1CC[C@H]2[C@@H]3CC[C@@H]4C[C@H](O)CC[C@]4(C)[C@H]3CC[C@]12C` [3α-hydroxy-5β-pregnan-20-one] gave an IC50 in series [1] of 25 nM. In the series with rats, the body temperature entry is recorded as “tends not to affect body temperature”. In addition, the “duration of uninterrupted NREM sleep (sleep bout length)” value with rats was “strong increase”. Further, the “rebound insomnia / rebound wakefulness / rebound effects” value in the series on rats is recorded as “not producing rebound wakefulness”. For the same compound, the “reduction in locomotor activity (LMA) over time” value is listed as “no reduction” with rats (10 mg/kg) and “moderately smaller reduction” with rats (30 mg/kg). The “rebound reduction of NREM sleep” value with rats (CT-5 or CT-18, any dose) is listed as “no rebound reduction of NREM sleep”. For the same compound, the NREM sleep entry is “potent at both CT-5 and CT-18; also recorded: potent NREM-promoting effect” with rats (administered at CT-5 or CT-18, listed as Pregnanolone); “effective in promoting NREM sleep” in the series with rats (administered at CT-5 or CT-18, listed as pregnanolone). In addition, the values for the REM sleep result in the series with rats (listed as Pregnanolone) and in the series on rats (listed as pregnanolone) were “slight REM-interference” and “lack an inhibitory effect on REM sleep”, respectively.

For the compound `C#C[C@@]1(O)CC[C@@]2(C)[C@H](CC[C@@H]3[C@@H]2CC[C@]2(C)[C@@H](C(C)=O)CC[C@@H]32)C1` [3β-ethynyl-3α-hydroxy-5β-pregnan-20-one], the IC50 in series [1] was 39 nM. Also, in the series on rats, the REM sleep entry was “lack an inhibitory effect on REM sleep”, the body temperature result is reported as “minimal effect on body temperature” and the “duration of uninterrupted NREM sleep (sleep bout length)” value is “strong increase”. The “reduction in LMA over time” value in the series on rats (18 mg/kg at CT-18) was “moderately smaller reduction”. The “rebound reduction of NREM sleep” value in the series on rats (administered at CT-18) is recorded as “no rebound reduction of NREM sleep”.

With `C#C[C@@]1(O)CC[C@@]2(C)[C@H](CC[C@@H]3[C@@H]2CC[C@]2(C)[C@@H](C(=O)COC(=O)CCC(=O)O)CC[C@@H]32)C1` [Sodium 3α,21-dihydroxy-3β-ethynyl-5β-pregnan-20-one 21-hemisuccinate], the solubility in the series “Solubility in water” is above 20 mg/mL.
